# In patent US4640916A, “1,4-benzothiazine derivatives, compositions containing them and method of use” (priority 1984, dated 1987):
# Counter-ions that a name gives are not always drawn. Like-named read-outs stand apart in the source and are kept apart here.
# Assays:
# [1] = system: spontaneously hypertensive rats; assay: Antihypertensive action in spontaneously hypertensive rats (tail-cuff); assay type: in vivo; conditions: 30 mg/Kg oral; 1 h after administration
# Method: Male 12 to 13 weeks old spontaneously hypertensive rats with about 200 mm Hg of blood pressure were used in groups of 3 individuals. Mean arterial blood pressures of these animals were measured by the tail-cuff method, then the animals were orally given 3-60 mg/kg of each test compound of this invention as 2 ml of its suspension in gum arabic. Blood pressure measurements were made again one hour after administration of each test compound.
# [2] = system: contraction of the aorta strip caused by KCl; assay: Vasodilating action: inhibition of contraction of rabbit aorta strip caused by KCl; assay type: cell-based; conditions: Oryctolagus cuniculus, compound 10^-5 M, KCl 60 mM, 15 min pretreatment, read-out: Inhibitory percent against contraction, KCl
# Method: (§1) A spiral strip of aorta of a rabbit (2-3 mm width, about 3 cm length) was allowed to equilibrate by hanging under 2 g force in a Krebs-Henseleit solution. The solution was saturated with a mixture gas of 97% O2 --3% CO2 which was warmed to 37° C. Inhibitory actions of compounds (10^-5 M) of this invention against contraction of the aorta strip caused by KCl (60 mM), norepinephrine (NE) (10^-6 M) or serotonin (5--HT) (10^-6 M), by treating the strip with a compound of this invention 15 minutes before the test, are shown in Table 1 as inhibitory percent.
# [3] = system: contraction of the aorta strip caused by norepinephrine (NE); assay: Vasodilating action: inhibition of contraction of rabbit aorta strip caused by norepinephrine (NE); assay type: cell-based; conditions: Oryctolagus cuniculus, compound 10^-5 M, NE 10^-6 M, 15 min pretreatment, read-out: Inhibitory percent against contraction, NE
# Method: as §1
# [4] = system: contraction of the aorta strip caused by serotonin (5--HT); assay: Vasodilating action: inhibition of contraction of rabbit aorta strip caused by serotonin (5-HT); assay type: cell-based; conditions: Oryctolagus cuniculus, compound 10^-5 M, 5-HT 10^-6 M, 15 min pretreatment, read-out: Inhibitory percent against contraction, 5-HT
# Method: as §1
Structure (SMILES),Antihypertensive effect (difference of blood pressure before and after medication) [1],inhibition at 10 µM [2] [%],inhibition at 10 µM [3] [%],inhibition at 10 µM [4] [%],inhibition at 10 µM ([3]; 0.25 h) [%]
"O=C1Nc2cc3c(cc2SC1CCCN1CCN(c2ccc(F)cc2)CC1)OCO3 (stereo not drawn) [Example 45, 6-[3-[4-(4-fluorophenyl)-1-piperazinyl]propyl]-6H-1,3-dioxolo[4,5-g][1,4]benzothiazin-7(8H)-one.dihydrochloride]",30 ΔmmHg,–,–,–,–
O=C1Nc2ccccc2SC1CCN1CCN(c2ccccc2)CC1 (stereo not drawn) [Example 27],–,20,100,100,–
Cc1ccc(N2CCN(CCCC3Sc4cccc(C)c4NC3=O)CC2)cc1 (stereo not drawn) [Example 7],–,77,60,–,–
"O=C1Nc2ccccc2SC1CCCCN1CCN(c2ccc(F)cc2)CC1 (stereo not drawn) [Example 38, 2-[4-[4-(4-fluorophenyl)-1-piperazinyl]butyl]-2H-1,4-benzothiazin-3(4H)-one]",32 ΔmmHg,30,–,–,100
COc1ccccc1N1CCN(CCCC2Sc3cc(C)c(C)cc3NC2=O)CC1 (stereo not drawn) [Example 23],48 ΔmmHg,40,100,–,–
O=C1Nc2cc(C(F)(F)F)ccc2SC1CCCN1CCN(c2ccc(F)cc2)CC1 (stereo not drawn) [Example 10],33 ΔmmHg,45,100,–,–
COc1ccccc1N1CCN(CCCC2Sc3cccc(OC)c3NC2=O)CC1 (stereo not drawn) [Example 4],–,18,100,12,–
COc1cccc2c1NC(=O)C(CCCN1CCN(c3ccccc3)CC1)S2 (stereo not drawn) [Example 24],–,20,100,66,–
Cc1cccc2c1NC(=O)C(CCCN1CCN(c3cccc(C(F)(F)F)c3)CC1)S2 (stereo not drawn) [Example 19],–,55,100,–,–
"O=C1Nc2c(ccc3c2CCCC3)SC1CCCN1CCN(c2ccc(F)cc2)CC1 (stereo not drawn) [Example 47, 3-[3-[4-(4-fluorophenyl)-1-piperazinyl]propyl]-7,8,9,10-tetrahydro-1H-naphtho[2,1-b][1,4]thiazin-2(3H)-one.hydrochloride]",35 ΔmmHg,–,–,–,–
CCc1cccc2c1NC(=O)C(CCCN1CCN(c3ccc(F)cc3)CC1)S2 (stereo not drawn) [Example 41],23 ΔmmHg,–,–,–,–
COc1ccccc1N1CCN(CCCC2Sc3cc(C)ccc3NC2=O)CC1 (stereo not drawn) [Example 21],–,32,100,56,–
Cc1ccccc1N1CCN(CCCC2Sc3cccc(C)c3NC2=O)CC1 (stereo not drawn) [Example 17],26 ΔmmHg,11,100,–,–
Cc1cccc(N2CCN(CCCC3Sc4cccc(C)c4NC3=O)CC2)c1 (stereo not drawn) [Example 18],–,50,100,–,–
O=C1Nc2ccccc2SC1CCCN1CCN(c2ccc(F)cc2)CC1 (stereo not drawn) [Example 3],–,53,100,–,–
COc1ccccc1N1CCN(CCCC2Sc3cccc(C)c3NC2=O)CC1 (stereo not drawn) [Example 16],–,33,100,70,–
CN1C(=O)C(CCN2CCN(c3ccccc3)CC2)Sc2ccccc21 (stereo not drawn) [Example 31],–,40,100,62,–
O=C1Nc2ccccc2SC1CCN1CCN(c2ccc(F)cc2)CC1 (stereo not drawn) [Example 26],26 ΔmmHg,60,–,–,60
Cc1ccc2c(c1C)NC(=O)C(CCCN1CCN(c3ccc(F)cc3)CC1)S2 (stereo not drawn) [Example 42],28 ΔmmHg,–,–,–,–
"CCN1C(=O)C(CCN2CCN(c3ccccc3OC)CC2)Sc2ccccc21 (stereo not drawn) [Example 36, 4-ethyl-2-[2-[4-(2-methoxyphenyl)-1-piperazinyl]ethyl]-2H-1,4-benzothiazin-3(4H)-one]",–,15,–,100,100
